We go through 22 compounds from BindingDB's records for doi:10.1021/jm00020a029 (Merck Research Laboratories, 1995).

One may read the EC50 as the concentration at which the effect is half-maximal.

Where a SMILES comes first, the peptide text is derived from it. [ ]: non-standard residue; d: D form. Phe(3,4-Cl2) = N[C@@H](Cc1ccc(Cl)c(Cl)c1)C(=O)O; Phe(4-Cl) = N[C@@H](Cc1ccc(Cl)cc1)C(=O)O; Phe(4-F) = N[C@@H](Cc1ccc(F)cc1)C(=O)O; hArg = N=C(N)NCCCC[C@H](N)C(=O)O; Cha = N[C@@H](CC1CCCCC1)C(=O)O; Phg = N[C@H](C(=O)O)c1ccccc1; Aib = CC(C)(N)C(=O)O; GABA = NCCCC(=O)O A value given as a limit tells only on which side of the number the result lay.

The nature of the experiment: Evaluated for the activation of human thrombin receptor measured by platelet aggregation.
The compound `CC(C)C[C@H](NC(=O)[C@H](CC(C)C)NC(=O)[C@H](Cc1ccccc1)NC(=O)[C@@H](N)CO)C(=O)N[C@@H](CCCN=C(N)N)C(=O)N[C@@H](CC(N)=O)C(=O)N1CCC[C@H]1C(N)=O` [1-{(S)-2-[(S)-2-((S)-2-{(S)-2-[(S)-2-((S)-2-Amino-3-hydroxy-propionylamino)-3-phenyl-propionylamino]-4-methyl-pentanoylamino}-4-methyl-pentanoylamino)-5-guanidino-pentanoylamino]-3-carbamoyl-propionyl}-pyrrolidine-2-carboxylic acid amide] (H-SFLLRNP-NH2) showed an EC50 of 0.5 µM. `CC(C)C[C@H](NC(=O)[C@@H](CC(C)C)NC(=O)[C@H](Cc1ccccc1)NC(=O)[C@@H](N)CO)C(=O)N[C@@H](CCCNC(=N)N)C(N)=O` [(R)-2-[(S)-2-((S)-2-Amino-3-hydroxy-propionylamino)-3-phenyl-propionylamino]-4-methyl-pentanoic acid [(S)-1-((S)-1-carbamoyl-4-guanidino-butylcarbamoyl)-3-methyl-butyl]-amide]: the EC50 was above 800 µM. Take `CC(=O)N[C@@H](Cc1ccccc1)C(=O)N[C@@H](CC(C)C)C(=O)N[C@@H](CC(C)C)C(=O)N[C@@H](CCCNC(=N)N)C(N)=O` [(S)-2-((S)-2-Acetylamino-3-phenyl-propionylamino)-4-methyl-pentanoic acid [(S)-1-((S)-1-carbamoyl-4-guanidino-butylcarbamoyl)-3-methyl-butyl]-amide] (Ac-FLLR-NH2): the EC50 stood at 200 µM. `CC(C)C[C@H](NC(=O)[C@H](CC(C)C)NC(=O)[C@@H](N)Cc1ccccc1)C(=O)N[C@@H](CCCNC(=N)N)C(N)=O` [(S)-2-((S)-2-Amino-3-phenyl-propionylamino)-4-methyl-pentanoic acid [(S)-1-((S)-1-carbamoyl-4-guanidino-butylcarbamoyl)-3-methyl-butyl]-amide] (H-FLLR-NH2) had an EC50 above 800 µM. The value for `CC(C)C[C@H](NC(=O)[C@H](CC(C)C)NC(=O)[C@H](Cc1ccc(F)cc1)NC(=O)[C@H](C)N)C(=O)N[C@@H](CCCCNC(=N)N)C(N)=O` [(S)-2-((S)-2-{(S)-2-[(S)-2-((S)-2-Amino-propionylamino)-3-(4-fluoro-phenyl)-propionylamino]-4-methyl-pentanoylamino}-4-methyl-pentanoylamino)-6-guanidino-hexanoic acid amide] (H-A[Phe(4-F)]LL[hArg]-NH2) was 0.12 µM; that for `CC(C)C[C@H](NC(=O)[C@H](CC(C)C)NC(=O)[C@H](Cc1ccccc1)NC(=O)[C@@H](N)CCCNC(=N)N)C(=O)N[C@@H](CCCNC(=N)N)C(N)=O` [(S)-2-Amino-5-guanidino-pentanoic acid ((S)-1-{(S)-1-[(S)-1-((S)-1-carbamoyl-4-guanidino-butylcarbamoyl)-3-methyl-butylcarbamoyl]-3-methyl-butylcarbamoyl}-2-phenyl-ethyl)-amide] (H-RFLLR-NH2) was above 1200 µM. The value for `NC(=O)[C@H](Cc1ccccc1)NC(=O)[C@@H](N)CO` [(S)-2-Amino-N-((S)-1-carbamoyl-2-phenyl-ethyl)-3-hydroxy-propionamide] was above 800 µM; that for `CC(C)C[C@H](NC(=O)[C@H](CC(C)C)NC(=O)[C@@H](Cc1ccccc1)NC(=O)[C@@H](N)CO)C(=O)N[C@@H](CCCNC(=N)N)C(N)=O` [(S)-2-[(R)-2-((S)-2-Amino-3-hydroxy-propionylamino)-3-phenyl-propionylamino]-4-methyl-pentanoic acid [(S)-1-((S)-1-carbamoyl-4-guanidino-butylcarbamoyl)-3-methyl-butyl]-amide] was above 800 µM. Turning to `CC(C)C[C@H](NC(=O)[C@H](CC(C)C)NC(=O)[C@H](Cc1ccccc1)NC(=O)C(C)(C)N)C(=O)N[C@@H](CCCNC(=N)N)C(N)=O` [(S)-2-[(S)-2-(2-Amino-2-methyl-propionylamino)-3-phenyl-propionylamino]-4-methyl-pentanoic acid [(S)-1-((S)-1-carbamoyl-4-guanidino-butylcarbamoyl)-3-methyl-butyl]-amide] (H-[Aib]FLLR-NH2), the EC50 turned out to be 415 µM.

`CC(C)C[C@H](NC(=O)[C@H](CC(C)C)NC(=O)[C@H](Cc1ccccc1)NC(=O)CN)C(=O)N[C@@H](CCCNC(=N)N)C(N)=O` [(S)-2-[(S)-2-(2-Amino-acetylamino)-3-phenyl-propionylamino]-4-methyl-pentanoic acid [(S)-1-((S)-1-carbamoyl-4-guanidino-butylcarbamoyl)-3-methyl-butyl]-amide] (H-GFLLR-NH2) yielded an EC50 of 1.2 µM. Compound `CC(C)C[C@H](NC(=O)[C@H](CC(C)C)NC(=O)[C@H](Cc1ccccc1)NC(=O)CCCN)C(=O)N[C@@H](CCCNC(=N)N)C(N)=O` [(S)-2-[(S)-2-(4-Amino-butyrylamino)-3-phenyl-propionylamino]-4-methyl-pentanoic acid [(S)-1-((S)-1-carbamoyl-4-guanidino-butylcarbamoyl)-3-methyl-butyl]-amide] (H-[GABA]FLLR-NH2) yielded an EC50 of 730 µM. For the compound `CC(C)C[C@H](NC(=O)[C@H](CC(C)C)NC(=O)[C@H](Cc1ccccc1)NC(=O)[C@H](N)CO)C(=O)N[C@@H](CCCNC(=N)N)C(N)=O` [(S)-2-[(S)-2-((R)-2-Amino-3-hydroxy-propionylamino)-3-phenyl-propionylamino]-4-methyl-pentanoic acid [(S)-1-((S)-1-carbamoyl-4-guanidino-butylcarbamoyl)-3-methyl-butyl]-amide], the EC50 came out at 800 µM. The compound `CC(C)C[C@H](NC(=O)[C@H](Cc1ccccc1)NC(=O)[C@@H](N)CO)C(=O)N[C@H](CC(C)C)C(=O)N[C@@H](CCCNC(=N)N)C(N)=O` [(S)-2-[(S)-2-((S)-2-Amino-3-hydroxy-propionylamino)-3-phenyl-propionylamino]-4-methyl-pentanoic acid [(R)-1-((S)-1-carbamoyl-4-guanidino-butylcarbamoyl)-3-methyl-butyl]-amide] came in with an EC50 of 500 µM. Then `CC(C)C[C@H](NC(=O)[C@H](Cc1ccccc1)NC(=O)[C@@H](N)CO)C(=O)N[C@@H](CC(C)C)C(=O)N[C@H](CCCNC(=N)N)C(N)=O` [(S)-2-[(S)-2-((S)-2-Amino-3-hydroxy-propionylamino)-3-phenyl-propionylamino]-4-methyl-pentanoic acid [(S)-1-((R)-1-carbamoyl-4-guanidino-butylcarbamoyl)-3-methyl-butyl]-amide], with 109 µM. The value for `CC(C)C[C@H](NC(=O)[C@H](CC(C)C)NC(=O)[C@H](Cc1ccccc1)NC(=O)[C@@H](N)CO)C(=O)N[C@@H](CCCNC(=N)N)C(N)=O` [(S)-2-[(S)-2-((S)-2-Amino-3-hydroxy-propionylamino)-3-phenyl-propionylamino]-4-methyl-pentanoic acid [(S)-1-((S)-1-carbamoyl-4-guanidino-butylcarbamoyl)-3-methyl-butyl]-amide] was 1 µM; that for `CC(C)C[C@H](NC(=O)[C@H](Cc1ccccc1)NC(=O)[C@@H](N)CO)C(=O)N[C@@H](C)C(=O)N[C@@H](CCCNC(=N)N)C(N)=O` [(S)-2-[(S)-2-((S)-2-Amino-3-hydroxy-propionylamino)-3-phenyl-propionylamino]-4-methyl-pentanoic acid [(S)-1-((S)-1-carbamoyl-4-guanidino-butylcarbamoyl)-ethyl]-amide] (H-SFLAR-NH2) was 15 µM; that for `CC(C)C[C@H](NC(=O)[C@H](CC(C)C)NC(=O)[C@H](Cc1ccccc1)NC(=O)[C@@H](N)CO)C(=O)N[C@@H](C)C(N)=O` [(S)-2-[(S)-2-((S)-2-Amino-3-hydroxy-propionylamino)-3-phenyl-propionylamino]-4-methyl-pentanoic acid [(S)-1-((S)-1-carbamoyl-ethylcarbamoyl)-3-methyl-butyl]-amide] (H-SFLLA-NH2) was 70 µM. The value for `CC(C)C[C@H](NC(=O)[C@H](C)NC(=O)[C@@H](N)CO)C(=O)N[C@@H](CC(C)C)C(=O)N[C@@H](CCCNC(=N)N)C(N)=O` [(S)-2-[(S)-2-((S)-2-Amino-3-hydroxy-propionylamino)-propionylamino]-4-methyl-pentanoic acid [(S)-1-((S)-1-carbamoyl-4-guanidino-butylcarbamoyl)-3-methyl-butyl]-amide] (H-SALLR-NH2) was above 800 µM.

For the compound `CC(C)C[C@H](NC(=O)[C@H](CC(C)C)NC(=O)[C@@H](NC(=O)[C@H](C)N)c1ccccc1)C(=O)N[C@@H](CCCNC(=N)N)C(N)=O` [(S)-2-[(S)-2-((S)-2-Amino-propionylamino)-2-phenyl-acetylamino]-4-methyl-pentanoic acid [(S)-1-((S)-1-carbamoyl-4-guanidino-butylcarbamoyl)-3-methyl-butyl]-amide] (H-A[Phg]LLR-NH2), the EC50 is above 800 µM. For `CC(C)C[C@H](NC(=O)[C@H](CC(C)C)NC(=O)[C@H](Cc1ccc(Cl)c(Cl)c1)NC(=O)[C@H](C)N)C(=O)N[C@@H](CCCNC(=N)N)C(N)=O` [(S)-2-[(S)-2-((S)-2-Amino-propionylamino)-3-(3,4-dichloro-phenyl)-propionylamino]-4-methyl-pentanoic acid [(S)-1-((S)-1-carbamoyl-4-guanidino-butylcarbamoyl)-3-methyl-butyl]-amide] (H-A[Phe(3,4-Cl2)]LLR-NH2), the EC50 is 0.5 µM.

Take `CC(C)C[C@H](NC(=O)[C@H](CC(C)C)NC(=O)[C@H](Cc1ccc(Cl)cc1)NC(=O)[C@H](C)N)C(=O)N[C@@H](CCCNC(=N)N)C(N)=O` [(S)-2-[(S)-2-((S)-2-Amino-propionylamino)-3-(4-chloro-phenyl)-propionylamino]-4-methyl-pentanoic acid [(S)-1-((S)-1-carbamoyl-4-guanidino-butylcarbamoyl)-3-methyl-butyl]-amide] (H-A[Phe(4-Cl)]LLR-NH2): the EC50 amounted to 0.7 µM. With `CC(C)C[C@H](NC(=O)[C@H](Cc1ccc(F)cc1)NC(=O)[C@H](C)N)C(=O)N[C@@H](CC1CCCCC1)C(=O)N[C@@H](CCCNC(=N)N)C(N)=O` [(S)-2-[(S)-2-((S)-2-Amino-propionylamino)-3-(4-fluoro-phenyl)-propionylamino]-4-methyl-pentanoic acid [(S)-1-((S)-1-carbamoyl-4-guanidino-butylcarbamoyl)-2-cyclohexyl-ethyl]-amide] (H-A[Phe(4-F)]L[Cha]R-NH2), the midpoint of the response, the EC50, lay at 0.14 µM.
